Laboratory results: patent publication US20160208246A1, “COMPOSITIONS AND METHODS FOR TREATING A HEMATOLOGICAL MALIGNANCY ASSOCIATED WITH AN ALTERED RUNX1 ACTIVITY OR EXPRESSION” (YEDA RESEARCH AND DEVELOPMENT CO. LTD., priority 2013, published 2016)
Residues, ends and D or L forms follow the SMILES beside them. *: point of attachment. Cbz = O=C(OCc1ccccc1)*; CH2F = FC*

Tests used:
Kasumi-1 cells = assay: Cell cycle analysis (Propidium iodide, FACS); assay type: cell-based, human; conditions: 50 μM, 24 hrs, three days post siRNA-delivery
From the text: FIGS. 1B and 1C illustrate cell cycle analysis 8 days post transfection with either RUNX1-targeting (SEQ ID NO: 52) or control non-targeting (NT) siRNA. FIG. 1B illustrates cells which were subjected to two successive transfections (at days 0 and 4) with either RUNX1-targeting or NT siRNA. Propidium iodide (PI) was used to assess cellular DNA content by FACS analysis. Bar numbers indicate the relative size (in %) of labeled population out of total cells. Indicated cell cycle phases: subG1; G1; S and G2M; and FIG. 1C are histograms summarizing the distribution of cell population as analyzed in FIG. 1B. Data represents mean±STDV values of five independent experiments.
FIG. 1H illustrates that caspase inhibition rescues Kasumi-1^RX1-KD from apoptosis. […] Histograms show the distribution of cells among cell cycle phases determined as detailed above. […]
FIGS. 2C-2G illustrate that KD of A-E rescues Kasumi-1 cells from RUNX1 KD-induced apoptosis. […] FIGS. 2C-2F, following incubation for 8 days, cells were stained with PI and analyzed by FACS for cell cycle; and FIG. 2G are histograms showing the distribution of cells among cell cycle phases. […]
For cell cycle analysis, cells were stained with Propidium iodide (Sigma-Aldrich) according to standard procedure. […] All data were collected using LSRII flow cytometer (BD Biosciences) and analyzed by FlowJo software.

RUNX1 = assay: siRNA-mediated RUNX1 KD in Kasumi-1 cells (RT-qPCR, Western blotting); assay type: cell-based, human; conditions: Western blot, 50 μM, 24 hrs after 72 hrs siRNA
From the text: FIG. 1A, upper panel, is a schematic illustration of RUNX1 (blue) and RUNX1-ETO (A-E) (blue-red) transcripts indicating regions targeted by the siRNAs used to knock down (KD) expression of either RUNX1 (bars underneath RUNX1 marked in green and orange) or A-E (black bar underneath A-E fusion region). […] NO: 49) (as marked in green in the upper panel). Total RNA isolated 24 hrs post electroporation of RUNX1-targeting or non-targeting (NT) control siRNA. Data shown represent mean expression±SE. Shown are results from one of three experiments with the same findings. Primers used for RT-qPCR are presented in Table 1 (in the Examples section which follows). […] Blots were reacted with an antibody (Ab) against RUNX1-N-terminus or Lamin. Results from one of two experiments with the same findings are shown. […] KD efficiency was assessed both by RT-qPCR and immunoblotting. […] Cells were collected, washed once in PBS, and nuclear proteins were extracted and analyzed by Western blotting as previously described [Aziz-Aloya, R. et al., Cell Death (1998) 5, 765-773]. […] Quantitation of cDNAs was performed by qPCR using Roche LC480 LightCycler with sequence-specific primers (Table 1, below) and miScript SYBR Green PCR kit (QIAGEN). Target transcript quantification was calculated relative to ACTB mRNA, which served as an internal control. Standard errors were calculated using REST.

**Q.** What does the source list for `COC(=O)C[C@H](NC(=O)[C@H](C)NC(=O)[C@@H](NC(=O)OCc1ccccc1)C(C)C)C(=O)CF` [Z-VAD-FMK] (Cbz-Val-Ala-Asp(OMe)-CH2F)?
**A.** apoptosis in Kasumi-1^RX1-KD cells (Kasumi-1 cells): completely blocked apoptosis; subG1 fraction of Kasumi-1^RX1-KD cells (Kasumi-1 cells): profound decrease; RUNX1 protein levels in Kasumi-1^RX1-KD cells (RUNX1): further reduced
